# From ChEMBL document CHEMBL4145553, “Design, synthesis, and biological evaluation of novel amide and hydrazide based thioether analogs targeting Histone deacteylase (HDAC) enzymes” (Eur J Med Chem, 2018)
# Key:
# Format in all cases: functional
# [1] = system: HT-29; experiment: Growth inhibition of human HT-29 cells assessed as cell growth at 10^-5 M incubated for 48 hrs by sulforhodamine B assay relative to control; details: HT-29, 48 h, read-out: Activity
# [2] = system: A549; experiment: Growth inhibition of human A549/ATCC cells assessed as cell growth at 10^-6 M incubated for 48 hrs by sulforhodamine B assay relative to control; details: A549, 48 h, read-out: Activity
# [3] = system: K562; experiment: Growth inhibition of human K562 cells incubated for 48 hrs by sulforhodamine B assay; details: K562, 48 h
# [4] = system: SNB-19; experiment: Growth inhibition of human SNB19 cells incubated for 48 hrs by sulforhodamine B assay; details: SNB-19, 48 h
# [5] = system: HCT-15; experiment: Growth inhibition of human HCT15 cells assessed as cell growth at 10^-6 M incubated for 48 hrs by sulforhodamine B assay relative to control; details: HCT-15, 48 h, read-out: Activity
# [6] = system: CCRF-CEM; experiment: Growth inhibition of human CCRF-CEM cells assessed as cell growth at 10^-4 M incubated for 48 hrs by sulforhodamine B assay relative to control; details: read-out: Activity
# [7] = system: SK-MEL-5; experiment: Growth inhibition of human SK-MEL-5 cells incubated for 48 hrs by sulforhodamine B assay; details: SK-MEL-5, 48 h
# [8] = system: SK-OV-3; experiment: Growth inhibition of human SKOV3 cells incubated for 48 hrs by sulforhodamine B assay; details: SK-OV-3, 48 h
# [9] = system: TK-10; experiment: Growth inhibition of human TK10 cells assessed as cell growth at 10^-7 M incubated for 48 hrs by sulforhodamine B assay relative to control; details: TK-10, 48 h, read-out: Activity
# [10] = system: NCI-H226; experiment: Growth inhibition of human NCI-H226 cells assessed as cell growth at 10^-7 M incubated for 48 hrs by sulforhodamine B assay relative to control; details: NCI-H226, 48 h, read-out: Activity
# [11] = system: A549; experiment: Growth inhibition of human A549/ATCC cells incubated for 48 hrs by sulforhodamine B assay; details: A549, 48 h
# [12] = system: SK-OV-3; experiment: Growth inhibition of human SKOV3 cells assessed as cell growth at 10^-6 M incubated for 48 hrs by sulforhodamine B assay relative to control; details: SK-OV-3, 48 h, read-out: Activity
# [13] = system: KM12; experiment: Growth inhibition of human KM12 cells assessed as cell growth at 10^-5 M incubated for 48 hrs by sulforhodamine B assay relative to control; details: KM12, 48 h, read-out: Activity
# [14] = system: OVCAR-4; experiment: Growth inhibition of human OVCAR4 cells assessed as cell growth at 10^-8 M incubated for 48 hrs by sulforhodamine B assay relative to control; details: OVCAR-4, 48 h, read-out: Activity
# [15] = system: HL-60(TB); experiment: Growth inhibition of human HL-60(TB) cells assessed as cell growth at 10^-6 M incubated for 48 hrs by sulforhodamine B assay relative to control; details: HL-60, 48 h, read-out: Activity
# [16] = system: K562; experiment: Growth inhibition of human K562 cells assessed as cell growth at 10^-5 M incubated for 48 hrs by sulforhodamine B assay relative to control; details: K562, 48 h, read-out: Activity
# [17] = system: SK-MEL-5; experiment: Growth inhibition of human SK-MEL-5 cells assessed as cell growth at 10^-4 M incubated for 48 hrs by sulforhodamine B assay relative to control; details: SK-MEL-5, 48 h, read-out: Activity
# [18] = system: SR; experiment: Growth inhibition of human SR cells incubated for 48 hrs by sulforhodamine B assay
# [19] = system: SNB-75; experiment: Growth inhibition of human SNB75 cells assessed as cell growth at 10^-5 M incubated for 48 hrs by sulforhodamine B assay relative to control; details: SNB-75, 48 h, read-out: Activity
# [20] = system: SF-268; experiment: Growth inhibition of human SF268 cells incubated for 48 hrs by sulforhodamine B assay; details: SF-268, 48 h
# [21] = system: Hs-578T; experiment: Growth inhibition of human Hs 578T cells assessed as cell growth at 10^-8 M incubated for 48 hrs by sulforhodamine B assay relative to control; details: read-out: Activity
# [22] = system: DU-145; experiment: Growth inhibition of human DU145 cells assessed as cell growth at 10^-6 M incubated for 48 hrs by sulforhodamine B assay relative to control; details: DU-145, 48 h, read-out: Activity
# [23] = system: OVCAR-8; experiment: Growth inhibition of human OVCAR8 cells assessed as cell growth at 10^-7 M incubated for 48 hrs by sulforhodamine B assay relative to control; details: OVCAR-8, 48 h, read-out: Activity
# [24] = system: NCI/ADR-RES; experiment: Growth inhibition of human NCI/ADR-RES cells assessed as cell growth at 10^-7 M incubated for 48 hrs by sulforhodamine B assay relative to control; details: read-out: Activity
# [25] = system: RPMI-8226; experiment: Growth inhibition of human RPMI8226 cells assessed as cell growth at 10^-8 M incubated for 48 hrs by sulforhodamine B assay relative to control; details: RPMI-8226, 48 h, read-out: Activity
# [26] = system: UACC-257; experiment: Growth inhibition of human UACC257 cells assessed as cell growth at 10^-8 M incubated for 48 hrs by sulforhodamine B assay relative to control; details: UACC-257, 48 h, read-out: Activity
# [27] = system: HCT-116; experiment: Growth inhibition of human HCT116 cells assessed as cell growth at 10^-6 M incubated for 48 hrs by sulforhodamine B assay relative to control; details: HCT-116, 48 h, read-out: Activity
# [28] = system: Malme-3M; experiment: Growth inhibition of human MALME-3M cells assessed as cell growth at 10^-7 M incubated for 48 hrs by sulforhodamine B assay relative to control; details: read-out: Activity
# [29] = read-out: LC50 (the source's name)
# [30] = read-out: pLC50 (the source's name) (converted)
compound,measurement,setting,value
CCS/C(Nc1ccccc1)=C(\C#N)C(=O)N/N=C\c1ccc(Cl)cc1Cl,growth at 10 µM,[1],11%
same,growth at 1 µM,[2],92%
same,GI50,[3]; read-out: GI50,0.855 µM
same,CC50,[3]; [29],> 100 µM
same,TGI,[3]; read-out: TGI,> 100 µM
same,GI50,[3]; read-out: pGI50 (converted),0.851 µM
same,CC50,[3]; [30],> 100 µM
same,TGI,[3]; read-out: pTGI,> 100 µM
same,GI50,[4]; read-out: GI50,4.17 µM
same,CC50,[4]; [29],> 100 µM
same,TGI,[4]; read-out: TGI,> 100 µM
same,GI50,[4]; read-out: pGI50 (converted),4.17 µM
same,CC50,[4]; [30],> 100 µM
same,TGI,[4]; read-out: pTGI,> 100 µM
same,growth at 1 µM,[5],77%
same,growth at 100 µM,[6],11%
same,GI50,[7]; read-out: GI50,2.28 µM
same,CC50,[7]; [29],> 100 µM
same,TGI,[7]; read-out: TGI,8.54 µM
same,GI50,[7]; read-out: pGI50 (converted),2.29 µM
same,CC50,[7]; [30],> 100 µM
same,TGI,[7]; read-out: pTGI (converted),8.51 µM
same,GI50,[8]; read-out: GI50,3.72 µM
same,CC50,[8]; [29],> 100 µM
same,TGI,[8]; read-out: TGI,> 100 µM
same,GI50,[8]; read-out: pGI50 (converted),3.72 µM
same,CC50,[8]; [30],> 100 µM
same,TGI,[8]; read-out: pTGI (converted),> 100 µM
same,growth at 0.1 µM,[9],91%
same,growth at 0.1 µM,[10],82%
same,GI50,[11]; read-out: GI50,4.63 µM
same,CC50,[11]; [29],> 100 µM
same,TGI,[11]; read-out: TGI,> 100 µM
same,GI50,[11]; read-out: pGI50 (converted),4.68 µM
same,CC50,[11]; [30],> 100 µM
same,TGI,[11]; read-out: pTGI,> 100 µM
same,growth at 1 µM,[12],92%
same,growth at 10 µM,[13],24%
same,growth at 0.01 µM,[14],98%
same,growth at 1 µM,[15],93%
same,growth at 10 µM,[16],10%
same,growth at 100 µM,[17],-14%
same,GI50,[18]; read-out: GI50,3.45 µM
same,CC50,[18]; [29],> 100 µM
same,TGI,[18]; read-out: TGI,> 100 µM
same,GI50,[18]; read-out: pGI50 (converted),3.47 µM
same,CC50,[18]; [30],> 100 µM
same,TGI,[18]; read-out: pTGI,> 100 µM
same,growth at 10 µM,[19],-2%
same,GI50,[20]; read-out: GI50,6.58 µM
same,CC50,[20]; [29],> 100 µM
same,TGI,[20]; read-out: TGI,> 100 µM
same,GI50,[20]; read-out: pGI50 (converted),6.61 µM
same,CC50,[20]; [30],> 100 µM
same,TGI,[20]; read-out: pTGI,> 100 µM
same,growth at 0.01 µM,[21],96%
same,growth at 1 µM,[22],97%
same,growth at 0.1 µM,[23],96%
same,growth at 0.1 µM,[24],97%
same,growth at 0.01 µM,[25],101%
same,growth at 0.01 µM,[26],94%
same,growth at 1 µM,[27],89%
same,growth at 0.1 µM,[28],89%
CCS/C(Nc1ccccc1)=C(\C#N)C(=O)Nc1ccc(OC)cc1,growth at 10 µM,[1],8%
same,growth at 1 µM,[2],99%
same,GI50,[3]; read-out: GI50,0.436 µM
same,CC50,[3]; [29],> 100 µM
same,TGI,[3]; read-out: TGI,> 100 µM
same,GI50,[3]; read-out: pGI50 (converted),0.437 µM
same,CC50,[3]; [30],> 100 µM
same,TGI,[3]; read-out: pTGI,> 100 µM
same,GI50,[4]; read-out: GI50,3.55 µM
same,CC50,[4]; [29],> 100 µM
same,TGI,[4]; read-out: TGI,> 100 µM
same,GI50,[4]; read-out: pGI50 (converted),3.55 µM
same,CC50,[4]; [30],> 100 µM
same,TGI,[4]; read-out: pTGI,> 100 µM
same,growth at 1 µM,[5],53%
same,growth at 100 µM,[6],7%
same,GI50,[7]; read-out: GI50,2.2 µM
same,CC50,[7]; [29],68.2 µM
same,TGI,[7]; read-out: TGI,8.19 µM
same,GI50,[7]; read-out: pGI50 (converted),2.19 µM
same,CC50,[7]; [30],67.6 µM
same,TGI,[7]; read-out: pTGI (converted),8.13 µM
same,GI50,[8]; read-out: GI50,3.28 µM
same,CC50,[8]; [29],> 100 µM
same,TGI,[8]; read-out: TGI,50.2 µM
same,GI50,[8]; read-out: pGI50 (converted),3.31 µM
same,CC50,[8]; [30],> 100 µM
same,TGI,[8]; read-out: pTGI (converted),50.1 µM
same,growth at 0.1 µM,[9],95%
same,growth at 0.1 µM,[10],86%
same,GI50,[11]; read-out: GI50,5.91 µM
same,CC50,[11]; [29],> 100 µM
same,TGI,[11]; read-out: TGI,> 100 µM
same,GI50,[11]; read-out: pGI50 (converted),5.89 µM
same,CC50,[11]; [30],> 100 µM
same,TGI,[11]; read-out: pTGI,> 100 µM
same,growth at 1 µM,[12],93%
same,growth at 10 µM,[13],28%
same,growth at 0.01 µM,[14],104%
same,growth at 1 µM,[15],86%
same,growth at 10 µM,[16],12%
same,growth at 100 µM,[17],-58%
same,GI50,[18]; read-out: GI50,1.54 µM
same,CC50,[18]; [29],> 100 µM
same,TGI,[18]; read-out: TGI,> 100 µM
same,GI50,[18]; read-out: pGI50 (converted),1.55 µM
same,CC50,[18]; [30],> 100 µM
same,TGI,[18]; read-out: pTGI,> 100 µM
same,growth at 10 µM,[19],-13%
same,GI50,[20]; read-out: GI50,6.8 µM
same,CC50,[20]; [29],> 100 µM
same,TGI,[20]; read-out: TGI,> 100 µM
same,GI50,[20]; read-out: pGI50 (converted),6.76 µM
same,CC50,[20]; [30],> 100 µM
same,TGI,[20]; read-out: pTGI,> 100 µM
same,growth at 0.01 µM,[21],97%
same,growth at 1 µM,[22],93%
same,growth at 0.1 µM,[23],99%
same,growth at 0.1 µM,[24],95%
same,growth at 0.01 µM,[25],94%
same,growth at 0.01 µM,[26],101%
same,growth at 1 µM,[27],69%
same,growth at 0.1 µM,[28],92%
